Test results from patent publication US11957759B1, “Rapidly accelerated fibrosarcoma (RAF) degrading compounds and associated methods of use” (Arvinas Operations, Inc., priority 2022, dated 2024).

Assays:
[1] = biological target: T1, B-RAF V600E (Homo sapiens, UniProt P15056, V600E); assay: Target protein degradation, assay C: T-Rex 293 cells, HA-BRAF_V600E, 384 well format; type: cell-based; details: T-Rex 293 HA-BRAF_V600E cells, 24 hours, Examples 83-269; for DC50: Assay C; for Dmax: T-REx-293, Assay C
T1 construct: expressed in transfected cells; host or cells: T-Rex 293 cells (Invitrogen #R71007)
T1 sequence (P15056 whole entry V600E): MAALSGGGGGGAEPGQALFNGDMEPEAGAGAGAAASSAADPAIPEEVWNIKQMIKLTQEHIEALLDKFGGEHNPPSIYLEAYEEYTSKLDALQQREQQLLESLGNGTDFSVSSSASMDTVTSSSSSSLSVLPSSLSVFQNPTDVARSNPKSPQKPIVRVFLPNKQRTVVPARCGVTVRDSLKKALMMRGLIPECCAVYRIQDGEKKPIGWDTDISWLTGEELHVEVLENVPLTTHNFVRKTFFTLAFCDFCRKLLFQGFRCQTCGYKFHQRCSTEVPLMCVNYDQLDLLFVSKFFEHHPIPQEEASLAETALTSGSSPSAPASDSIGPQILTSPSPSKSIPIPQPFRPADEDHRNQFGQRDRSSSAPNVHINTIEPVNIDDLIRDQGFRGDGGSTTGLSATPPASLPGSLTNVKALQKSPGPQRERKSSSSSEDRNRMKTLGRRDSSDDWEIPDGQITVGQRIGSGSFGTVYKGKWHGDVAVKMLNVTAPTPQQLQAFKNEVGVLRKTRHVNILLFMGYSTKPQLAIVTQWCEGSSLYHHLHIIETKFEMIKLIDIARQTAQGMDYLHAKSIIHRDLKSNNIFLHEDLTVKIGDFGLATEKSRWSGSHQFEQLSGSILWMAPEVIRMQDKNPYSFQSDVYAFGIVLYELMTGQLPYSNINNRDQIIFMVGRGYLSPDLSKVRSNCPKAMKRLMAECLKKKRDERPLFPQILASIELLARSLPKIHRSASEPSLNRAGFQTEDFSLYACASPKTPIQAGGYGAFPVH
Procedure, shortened: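 T-Rex 293 cells stably expressing doxycycline-induced (1 ng/mL) HA-BRAF V600E were treated 24 h at 37 °C with compound (300 nM–5 pM, 11 points, 0.5% DMSO). HA immunofluorescence was quantified by high-content imaging to give DC50 and Dmax (% of control); nuclei counts versus DMSO gauged toxicity.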

[2] = biological target: T2, B-RAF G466V (Homo sapiens, UniProt P15056, G466V); assay: Target protein degradation, assay D: T-Rex 293 cells, HA-BRAF_G466V, 384 well format; type: cell-based; details: T-Rex 293 HA-BRAF_G466V cells, 24 hours, Examples 83-269; for DC50: Assay D; for Dmax: T-REx-293, Assay D
T2 construct: expressed in transfected cells; host or cells: T-Rex 293 cells (Invitrogen #R71007)
T2 sequence (P15056 whole entry G466V): as the sequence (P15056 whole entry V600E) above, with G466V, E600V counted along it
Procedure, shortened: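 T-Rex 293 cells stably expressing doxycycline-induced (1 ng/mL) HA-BRAF G466V treated 24 h at 37 °C with PROTACs, 11-point 1:3 dilution, 300 nM to 5 pM final, 0.5% DMSO. Fixed cells immunostained for HA and imaged by high-content microscopy; DC50 and Dmax (% of control) derived, toxicity from nuclei counts versus DMSO.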

| DC50 [1] | Dmax [1] | DC50 [2] | Dmax [2] | SMILES |
| --- | --- | --- | --- | --- |
| ≤ 0.005 µM | 35 to 70% | ≤ 0.001 µM | ≤ 35% | N#Cc1c(NS(=O)(=O)N2CC[C@@H](F)C2)ccc(F)c1Oc1ccc2ncn(-c3ccc(N4CCN(CCCOc5cccc6c5C(=O)N(C5CCC(=O)NC5=O)C6=O)CC4)nc3)c(=O)c2c1 (stereo partly drawn) [Example 150, (3R)-N-{2-cyano-3-[(3-{6-[4-(3-{[2-(2,6-dioxopiperidin-3-yl)-1,3-dioxo-2,3-dihydro-1H-isoindol-4-yl]oxy}propyl)piperazin-1-yl]pyridin-3-yl}-4-oxo-3,4-dihydroquinazolin-6-yl)oxy]-4-fluorophenyl}-3-fluoropyrrolidine-1-sulfonamide] |
| 0.05 to 0.5 µM | 35 to 70% | 0.001 to 0.01 µM | ≤ 35% | N#Cc1c(NS(=O)(=O)N2CC[C@@H](F)C2)ccc(F)c1Oc1ccc2ncn(-c3ccc(N4CC(CN5CC(c6ccc7c(c6)CN([C@H]6CCC(=O)NC6=O)C7=O)C5)C4)cc3)c(=O)c2c1 [Example 204] |
| 0.05 to 0.5 µM | 35 to 70% | 0.001 to 0.01 µM | ≤ 35% | N#Cc1c(NS(=O)(=O)N2CC[C@@H](F)C2)ccc(F)c1Oc1ccc2ncn(-c3cccc(N4CCCC(CN5CCN(c6ccc7c(c6)CN([C@H]6CCC(=O)NC6=O)C7=O)CC5)C4)c3)c(=O)c2c1 (stereo partly drawn) [Example 93, (3R)-N-(2-cyano-3-{[3-(3-{3-[(4-{2-[(3S)-2,6-dioxopiperidin-3-yl]-1-oxo-2,3-dihydro-1H-isoindol-5-yl}piperazin-1-yl)methyl]piperidin-1-yl}phenyl)-4-oxo-3,4-dihydroquinazolin-6-yl]oxy}-4-fluorophenyl)-3-fluoropyrrolidine-1-sulfonamide] |
| 0.05 to 0.5 µM | 35 to 70% | 0.001 to 0.01 µM | 35 to 70% | N#Cc1c(NS(=O)(=O)N2CC[C@@H](F)C2)ccc(F)c1Oc1ccc2ncn(-c3ccc(N4CCC5(CCN(CC6CCN(c7ccc8c(c7)CN([C@@H]7CCC(=O)NC7=O)C8=O)CC6)CC5)CC4)cc3)c(=O)c2c1 [Example 201, (3R)-N-(2-cyano-3-{[3-(4-{9-[(1-{2-[(3R)-2,6-dioxopiperidin-3-yl]-1-oxo-2,3-dihydro-1H-isoindol-5-yl}piperidin-4-yl)methyl]-3,9-diazaspiro[5.5]undecan-3-yl}phenyl)-4-oxo-3,4-dihydroquinazolin-6-yl]oxy}-4-fluorophenyl)-3-fluoropyrrolidine-1-sulfonamide] |
| 0.05 to 0.5 µM | ≤ 35% | 0.01 to 0.03 µM | ≤ 35% | CCc1c(NS(=O)(=O)N2CC[C@@H](F)C2)ccc(F)c1Oc1ccc2ncn(-c3ccc(N4CCN(CC5CCN(c6ccc7c(c6)CN(C6CCC(=O)NC6=O)C7=O)CC5)CC4)cc3)c(=O)c2c1 (stereo partly drawn) [Example 227, (3R)-N-{3-[(3-{4-[4-({1-[2-(2,6-dioxopiperidin-3-yl)-1-oxo-2,3-dihydro-1H-isoindol-5-yl]piperidin-4-yl}methyl)piperazin-1-yl]phenyl}-4-oxo-3,4-dihydroquinazolin-6-yl)oxy]-2-ethyl-4-fluorophenyl}-3-fluoropyrrolidine-1-sulfonamide] |
| 0.05 to 0.5 µM | 35 to 70% | 0.001 to 0.01 µM | 35 to 70% | N#Cc1c(NS(=O)(=O)N2CC[C@@H](F)C2)ccc(F)c1Oc1ccc2ncn(-c3ccc(N4CCC(CN5CCC6(CC5)CCN(c5ccc7c(c5)CN([C@H]5CCC(=O)NC5=O)C7=O)CC6)CC4)cc3)c(=O)c2c1 [Example 228, (3R)-N-(2-cyano-3-{[3-(4-{4-[(9-{2-[(3S)-2,6-dioxopiperidin-3-yl]-1-oxo-2,3-dihydro-1H-isoindol-5-yl}-3,9-diazaspiro[5.5]undecan-3-yl)methyl]piperidin-1-yl}phenyl)-4-oxo-3,4-dihydroquinazolin-6-yl]oxy}-4-fluorophenyl)-3-fluoropyrrolidine-1-sulfonamide] |
| 0.05 to 0.5 µM | ≤ 35% | 0.001 to 0.01 µM | 35 to 70% | N#Cc1c(NS(=O)(=O)N2CC[C@@H](F)C2)ccc(F)c1Oc1ccc2ncn(-c3ccc(N4CC(CN5CCN(C6CCN(c7ccc8c(c7)CN(C7CCC(=O)NC7=O)C8=O)CC6)CC5)C4)cc3)c(=O)c2c1 (single isomer, unassigned) [Example 197, (3R)-N-[2-cyano-3-({3-[4-(3-{[4-(1-{2-[(3R*)-2,6-dioxopiperidin-3-yl]-1-oxo-2,3-dihydro-1H-isoindol-5-yl}piperidin-4-yl)piperazin-1-yl]methyl}azetidin-1-yl)phenyl]-4-oxo-3,4-dihydroquinazolin-6-yl}oxy)-4-fluorophenyl]-3-fluoropyrrolidine-1-sulfonamide] |
| 0.05 to 0.5 µM | 35 to 70% | 0.001 to 0.01 µM | ≤ 35% | N#Cc1c(NS(=O)(=O)N2CC[C@@H](F)C2)ccc(F)c1Oc1ccc2ncn(-c3ccc(N4CCC(CN5CC(c6ccc7c(c6)CN([C@@H]6CCC(=O)NC6=O)C7=O)C5)CC4)cc3)c(=O)c2c1 [Example 216] |
| 0.005 to 0.05 µM | 35 to 70% | 0.001 to 0.01 µM | ≤ 35% | N#Cc1c(NS(=O)(=O)N2CC[C@@H](F)C2)ccc(F)c1Oc1ccc2ncn(-c3ccc(N4CCN(CC5CCN(c6ccc(N7CCC(=O)NC7=O)cc6)CC5)CC4)cc3)c(=O)c2c1 [Example 96, (3R)-N-{2-cyano-3-[(3-(4-[4-({1-[4-(2,4-dioxo-1,3-diazinan-1-yl)phenyl]piperidin-4-yl}methyl)piperazin-1-yl]phenyl}-4-oxo-3,4-dihydroquinazolin-6-yl)oxy]-4-fluorophenyl}-3-fluoropyrrolidine-1-sulfonamide] |
| 0.05 to 0.5 µM | 35 to 70% | 0.001 to 0.01 µM | 35 to 70% | N#Cc1c(NS(=O)(=O)N2CC[C@@H](F)C2)ccc(F)c1Oc1ccc2ncn(-c3cnc(N4CC5(CN(CC6CCN(c7ccc8c(c7)C(=O)N(C7CCC(=O)NC7=O)C8=O)CC6)C5)C4)nc3)c(=O)c2c1 (stereo partly drawn) [Example 134, (3R)-N-{2-cyano-3-[(3-(2-[6-({1-[2-(2,6-dioxopiperidin-3-yl)-1,3-dioxo-2,3-dihydro-1H-isoindol-5-yl]piperidin-4-yl}methyl)-2,6-diazaspiro[3.3]heptan-2-yl]pyrimidin-5-yl}-4-oxo-3,4-dihydroquinazolin-6-yl)oxy]-4-fluorophenyl}-3-fluoropyrrolidine-1-sulfonamide] |
| 0.05 to 0.5 µM | ≤ 35% | 0.001 to 0.01 µM | 35 to 70% | N#Cc1c(NS(=O)(=O)N2CC[C@@H](F)C2)ccc(F)c1Oc1ccc2ncn(-c3ccc(N4CCN(CC5CCN(c6ccc7c(c6F)CN([C@H]6CCC(=O)NC6=O)C7=O)CC5)CC4)cn3)c(=O)c2c1 [Example 114, (3R)-N-(2-cyano-3-{[3-(5-{4-[(1-{2-[(3S)-2,6-dioxopiperidin-3-yl]-4-fluoro-1-oxo-2,3-dihydro-1H-isoindol-5-yl}piperidin-4-yl)methyl]piperazin-1-yl}pyridin-2-yl)-4-oxo-3,4-dihydroquinazolin-6-yl]oxy}-4-fluorophenyl)-3-fluoropyrrolidine-1-sulfonamide] |
| 0.05 to 0.5 µM | ≤ 35% | > 0.03 µM |  | N#Cc1c(NS(=O)(=O)N2CC[C@@H](F)C2)ccc(F)c1Oc1ccc2ncn(-c3ccc(N4CCC(CC5CCCN5c5ccc6c(c5)C(=O)N(C5CCC(=O)NC5=O)C6=O)CC4)nc3)c(=O)c2c1 (stereo partly drawn) [Example 160, (3R)-N-{2-cyano-3-[(3-{6-[4-({1-[2-(2,6-dioxopiperidin-3-yl)-1,3-dioxo-2,3-dihydro-1H-isoindol-5-yl]pyrrolidin-2-yl}methyl)piperidin-1-yl]pyridin-3-yl}-4-oxo-3,4-dihydroquinazolin-6-yl)oxy]-4-fluorophenyl}-3-fluoropyrrolidine-1-sulfonamide] |
| 0.05 to 0.5 µM | 35 to 70% | 0.001 to 0.01 µM | 35 to 70% | N#Cc1c(NS(=O)(=O)N2CC[C@@H](F)C2)ccc(F)c1Oc1ccc2ncn(-c3ccc(N4CCC(CN5CCC(c6ccc([C@@H]7CCC(=O)NC7=O)cc6F)CC5)CC4)cc3)c(=O)c2c1 [Example 188, (3R)-N-(2-cyano-3-{[3-(4-{4-[(4-{4-[(3S)-2,6-dioxopiperidin-3-yl]-2-fluorophenyl}piperidin-1-yl)methyl]piperidin-1-yl}phenyl)-4-oxo-3,4-dihydroquinazolin-6-yl]oxy}-4-fluorophenyl)-3-fluoropyrrolidine-1-sulfonamide] |

| SMILES | DC50 [1] | Dmax [1] | DC50 [2] | Dmax [2] |
| --- | --- | --- | --- | --- |
| N#Cc1c(NS(=O)(=O)N2CC[C@@H](F)C2)ccc(F)c1Oc1ccc2ncn(-c3ccc(N4CCC(O[C@H]5C[C@H](N6CCC(c7ccc8c(c7)CN(C7CCC(=O)NC7=O)C8=O)CC6)C5)CC4)cc3)c(=O)c2c1 (stereo partly drawn) [Example 253, (3R)-N-(2-cyano-4-fluoro-3-{[4-oxo-3-(4-{4-[(1r,3r)-3-{4-[2-(2,6-dioxopiperidin-3-yl)-1-oxo-2,3-dihydro-1H-isoindol-5-yl]piperidin-1-yl}cyclobutoxy]piperidin-1-yl}phenyl)-3,4-dihydroquinazolin-6-yl]oxy}phenyl)-3-fluoropyrrolidine-1-sulfonamide] | 0.05 to 0.5 µM | 35 to 70% | 0.001 to 0.01 µM | 35 to 70% |
